Marks after values point to notes of the source that are not given here.
What was measured:
Type in all cases: in vivo
[1] = tested on: Erysiphe graminis f. sp. tritici; test: Test A: wheat powdery mildew, preventive spray on wheat seedlings
Summary of the method: (§1)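 Compounds were dissolved in acetone (3% of final volume), then suspended in 50/50 acetone/purified water with 250 ppm Trem 014 surfactant. Plants were sprayed to run-off at 200 ppm (equivalent to 500 g/ha) or 40 ppm.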

[2] = tested on: Puccinia recondita f. sp. tritici; test: Test B: wheat leaf rust, preventive spray on wheat seedlings; settings: 200 ppm, 100 = 100% disease control, 0 = no control relative to controls; for pest or weed control at 200 ppm: Puccinia recondita, 192 h, read-out: Test B disease control rating
Summary of the method: as §1

Septoria nodorum = test: Test C: wheat glume blotch, preventive spray on wheat seedlings; settings: 200 ppm, 100 = 100% disease control, 0 = no control relative to controls; for pest or weed control at 200 ppm: Parastagonospora nodorum, 216 h, read-out: Test C disease control rating
Summary of the method: as §1

Septoria tritici = test: Test D: wheat leaf blotch, preventive spray on wheat seedlings; settings: 200 ppm, 100 = 100% disease control, 0 = no control relative to controls; for pest or weed control at 200 ppm: Zymoseptoria tritici, 504 h, read-out: Test D disease control rating
Summary of the method: as §1

Fusarium graminearum = test: whole plant or invertebrate; settings: for pest or weed control at 200 ppm: Fusarium graminearum, in Triticum aestivum, 192 h, read-out: Test E disease control rating; for Test E disease control rating: 200 ppm, 100 = 100% disease control, 0 = no control relative to controls
Botrytis cinerea = test: Test F: tomato Botrytis, preventive spray on tomato seedlings
Summary of the method: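 Compounds dissolved in acetone (3% of final volume), suspended in 50/50 acetone/water with 250 ppm Trem® 014. Sprayed preventively to run-off on tomato seedlings at 200 ppm (500 g/ha) or 40 ppm.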

Alternaria solani = test: Test H: tomato early blight, preventive spray on seedlings
Summary of the method: as §1

[3] = tested on: Colletotrichum orbiculare; test: Test I: cucumber Colletotrichum anthracnose, preventive spray on cucumber seedlings; settings: 100 = 100% disease control, 0 = no control relative to controls; for pest or weed control at 200 ppm: Colletotrichum orbiculare, 144 h, read-out: Test I disease control rating; for Test I disease control rating: 200 ppm
Summary of the method: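 Compound was dissolved in acetone (3% of final volume), then suspended in 50/50 acetone/water with 250 ppm Trem 014 surfactant. Cucumber seedlings were sprayed to run-off as a preventive treatment at 200 ppm (equivalent to 500 g/ha) or 40 ppm.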

Uncinula necator = test: Test N: grape powdery mildew, preventive spray on grape seedlings; settings: 100 ppm (100 g/ha, 1000 L/ha), inoculated the following day, 100 = 100% disease control, 0 = no control relative to controls
Text: (§2) General protocol for preparing test suspensions for Tests A-R: The test compounds were first dissolved in acetone in an amount equal to 3% of the final volume and then suspended at the desired concentration (in ppm) in acetone and purified water (50/50 mix) containing 250 ppm of the surfactant Trem® 014 (polyhydric alcohol esters). The resulting test suspensions were then used in tests A-R. In Tests A-M, compounds were sprayed as a 200 ppm test suspension (equivalent to a rate of 500 g/ha) or as a 40 ppm test suspension to the point of runoff on the test plants. In Tests N-R, compounds were sprayed as a 100 g/ha test suspension (equivalent to a rate of 100 ppm) on the test plants at an application volume of 1000 L/ha. The test suspension was sprayed on grape seedlings.

Venturia inaequalis = test: Test O: apple scab, preventive spray on apple seedlings; settings: 100 ppm (100 g/ha, 1000 L/ha), inoculated the following day, 100 = 100% disease control, 0 = no control relative to controls
Text: as §2, with “apple” for “grape”

Rhizoctonia oryzae = test: Test P: rice sheath blight, preventive spray on rice seedlings; settings: 100 ppm (100 g/ha, 1000 L/ha), inoculated the following day, 100 = 100% disease control, 0 = no control relative to controls
Text: as §2, with “rice” for “grape”

Magnaporthe grisea = settings: 100 ppm (100 g/ha, 1000 L/ha), rice seedlings, inoculated the following day; 100 = 100% disease control, 0 = no control relative to controls
Plasmopara viticola = test: Test R: grape downy mildew, preventive spray on grape seedlings; settings: 100 ppm (100 g/ha, 1000 L/ha), inoculated the following day, 100 = 100% disease control, 0 = no control relative to controls
Text: as §2, with “seedlings. The following day the seedlings were inoculated with a spore suspension of Plasmopara viticola (the causal agent of grape downy mildew) and incubated in a saturated atmosphere at 20° C. for 24 h, then moved to a growth chamber at 20° C. for 7 days, after which time the test units were placed back into a saturated atmosphere at 20° C. for 24 h. Upon removal, disease ratings were made.” for “seedlings.”

[4] = 200 ppm, 100 = 100% disease control, 0 = no control relative to controls

Row | SMILES | Test N disease control rating (Uncinula necator) [%] | Test O disease control rating (Venturia inaequalis) [%] | Test P disease control rating (Rhizoctonia oryzae) [%] | Test Q disease control rating (Magnaporthe grisea) [%] | Test R disease control rating (Plasmopara viticola) [%] | Test B disease control rating [2] [%] | Test C disease control rating (Septoria nodorum) [%] | Test D disease control rating (Septoria tritici) [%] | Test E disease control rating (Fusarium graminearum) [%] | Test F disease control rating (Botrytis cinerea; [4]) [%] | Test H disease control rating (Alternaria solani; [4]) [%] | Test I disease control rating [3] [%] | other results
1 | COCC(C)Nc1nccc(-c2ncnc(Nc3cccc(F)c3)n2)n1 (stereo not drawn) [Compound 2, N-(3-fluorophenyl)-4-[2-[(2-methoxy-1-methylethyl)amino]-4-pyrimidinyl]-1,3,5-triazin-2-amine] | 89 | 95 | 100 | 93 | 60 |  |  |  |  |  |  |  | pest or weed control at 200 ppm ([1]; Blumeria graminis, 192 h, 200 ppm, 100 = 100% disease control, 0 = no control relative to controls, read-out: Test A disease control rating): 94%; pest or weed control at 200 ppm [2]: 99%; pest or weed control at 200 ppm (Septoria nodorum): 99%; pest or weed control at 200 ppm (Septoria tritici): 71%; pest or weed control at 200 ppm (Fusarium graminearum): 95%; pest or weed control at 200 ppm (Botrytis cinerea; Botrytis cinerea, 120 h, 200 ppm, 100 = 100% disease control, 0 = no control relative to controls, read-out: Test F disease control rating): 93%; pest or weed control at 200 ppm (Alternaria solani; Alternaria solani, 168 h, 200 ppm, 100 = 100% disease control, 0 = no control relative to controls, read-out: Test H disease control rating): 97%; pest or weed control at 200 ppm [3]: 99%
2 | COC[C@H](C)Nc1nccc(-c2ncnc(Nc3cccc(C)c3)n2)n1 [Compound 19] | 95 | 33 |  |  | 73 | 97 | 100 | 87 | 97 | 99 | 93 | 99 | 
3 | COC[C@H](C)Nc1nccc(-c2ncnc(Nc3cccc(Cl)c3)n2)n1 [Compound 16] | 99 | 76 |  |  | 40 | 99 | 99 | 71 | 99 | 96 | 98 | 97 | 
4 | COC[C@H](C)Nc1nccc(-c2ncnc(Nc3cc(F)cc(F)c3)n2)n1 [Compound 22, N-(3,5-difluorophenyl)-4-[2-[[(1S)-2-methoxy-1-methylethyl]amino]-4-pyrimidinyl]-1,3,5-triazin-2-amine] | 99 | 99 | 100 | 100 | 83 |  |  |  |  |  |  |  | pest or weed control at 40 ppm ([1]; Blumeria graminis, 192 h, 40 ppm (marked *), read-out: Test A disease control rating): 69%; pest or weed control at 200 ppm [2]: 99%; pest or weed control at 200 ppm (Septoria nodorum): 100%; pest or weed control at 200 ppm (Septoria tritici): 36%; pest or weed control at 200 ppm (Fusarium graminearum): 99%; pest or weed control at 40 ppm (Botrytis cinerea; Botrytis cinerea, 120 h, 40 ppm (marked *), read-out: Test F disease control rating): 99%; pest or weed control at 40 ppm (Alternaria solani; Alternaria solani, 168 h, 40 ppm (marked *), read-out: Test H disease control rating): 100%; pest or weed control at 200 ppm [3]: 100%
5 | COC[C@H](C)Nc1nccc(-c2ncnc(Nc3ccc(C)c(F)c3)n2)n1 [Compound 25] | 99 | 59 |  |  | 86 | 99 | 100 | 16 | 99 | 63 | 99 |  | 
6 | COC[C@H](C)Nc1nccc(-c2ncnc(Nc3ccc(F)c(Cl)c3)n2)n1 [Compound 23] | 61 | 99 |  |  | 30 | 98 | 100 | 13 | 98 | 90 |  | 99 | Test A disease control rating ([1]; 40 ppm (marked *)): 0* %; Test H disease control rating (Alternaria solani; 40 ppm (marked *)): 100* %
7 | COC[C@H](C)Nc1nccc(-c2ncnc(Nc3ccc(C)c([N+](=O)[O-])c3)n2)n1 [Compound 26] | 69 | 96 |  |  | 96 | 98 | 100 | 2 | 98 | 17 | 91 |  | 
8 | COC[C@H](C)Nc1nccc(-c2ncnc(Nc3cccc(C#N)c3)n2)n1 [Compound 18] | 99 | 83 | 100 | 100 | 86 | 100 | 100 | 0 | 85 | 95 |  | 99 | Test H disease control rating (Alternaria solani; 40 ppm (marked *)): 89* %
9 | COC[C@H](C)Nc1nccc(-c2ccnc(Nc3cccc(F)c3)c2)n1 [Compound 56] | 64 | 75 | 100 | 98 | 97 | 99 | 99 | 82 | 90 | 99 |  | 90 | Test A disease control rating [1, 4]: 84%

From patent US8026359B2, “Fungicidal heterocyclic amines” (E.I. du Pont de Nemours and Company, priority 2007, dated 2011)
